Reference: US20210087217A1, “NUCLEOTIDE HEMI-SULFATE SALT FOR THE TREATMENT OF HEPATITIS C VIRUS” (Atea Pharmaceuticals, Inc., priority 2017, published 2021)
Entries after “also recorded” stand apart in the source; their conditions may differ. Where a name gives a salt, the structure may show the parent alone.

How the values were obtained:
[1] = Accelerated stability (40 ± 2° C./75 ± 5% RH) of Compound 2; assay type: physicochemical
Description: (§1) Three conditions were tested: accelerated stability (40 2° C./75±5% RH) over a 6-month time period, ambient stability (25±2° C./60±5% RH) over a 9-month period, and stability under refrigerator conditions (5 3° C.) over a 9-month time period. The results for accelerated stability, ambient stability, and refrigerator conditions are shown in Table 23, Table 24, and Table 25, respectively.
After six months, the total related substance 1 impurities was only 0.08% and there was no detection of related substance 2 and isomers.

[2] = Ambient stability (25 ± 2° C./60 ± 5% RH) of Compound 2; assay type: physicochemical
Description: as §1
After 9 months, the percentage of water in the sample was only 0.20% and the total related substance 1 impurities was only 0.02%.

[3] = Plasma levels of metabolites following single oral dose of Compound 2, rats; assay type: in vivo, rat; conditions: single oral dose of Compound 2
[4] = Plasma levels of metabolites following single oral doses of Compound 2, monkeys; assay type: in vivo, monkey; conditions: for AUC(0-t) / Cmax / Tmax: monkey, plasma, po
[5] = Heart and liver tissue levels of active triphosphate 4 hours after oral Compound 2, monkeys; assay type: in vivo, monkey; conditions: 4 hours after oral dose of Compound 2
Description: High levels of the active TP were measured in the liver of all species tested.

[6] = Plasma profiles of Compound 2 metabolites in monkeys; assay type: in vivo, cynomolgus monkeys; conditions: monkeys, single oral 30, 100 or 300 mg/kg Compound 2
[7] = Single ascending dose study of Compound 2 in healthy volunteers (Part A): safety, tolerability, pharmacokinetic; assay type: in vivo, human; conditions: healthy subjects
Description: Compound 2 was tested in a single ascending dose (SAD) study to measure its safety, tolerability, and pharmacokinetic in healthy subjects (Part A). Part A was a randomized, double-blind, placebo-controlled SAD study. Healthy subjects in Part A received a single dose of Compound 2 or placebo in the fasting state. Subjects were confined to the clinic from Day −1 to Day 6.
Dosing in each cohort was staggered such that 2 subjects (1 active:1 placebo) were evaluated for 48 hours after dosing before the remainder of the cohort was dosed. Each cohort received Compound 2 in ascending order. Dosing of sequential cohorts occurred based on review of available safety data (through Day 5) and plasma pharmacokinetic data (through 24 h) of the prior cohort.
As pharmacokinetic and safety data emerged from prior cohorts, doses evaluated in Cohorts 3a-4a were adjusted by increments no more than 100 mg.
Healthy volunteers in the Part A portion of the study were male and female subjects between the ages of 18 and 65. Active and placebo recipients were pooled within each Part A cohort to preserve the study blind.
Pharmacokinetic of Compound 1 and nucleoside metabolite 1-7 were measured following the single dose of Compound 2. […] Values are reported as mean±SD, except or Tmax where median (range) is reported.

HCV RNA (GT1-HCV) = test: Plasma HCV RNA reduction in GT1-HCV infected patients (Part B); assay type: in vivo
Description: Plasma HCV RNA determinations were performed through the use of a validated commercial assay. Baseline was defined as the mean of Day −1 and Day 1 (pre-dose). […] The mean maximum HCV RNA reduction 24 hours post-dose following a single 300 mg dose was 1.7 log10 IU/mL and this compares to a-2 log10 IU/mL reduction after 1 day of 400 mg of sofosbuvir monotherapy in GT1a HCV-infected subjects. The mean maximum HCV RNA reduction 24 hours post-dose following a single 100 mg dose was 0.8 log10 IU/mL. The mean maximum HCV RNA reduction was 2.2 log10 IU/mL following a single 400 mg dose.

[8] = 25° C./60% RH, over nine months
[9] = 25 ± 2° C./60 ± 5% RH, 1st month
[10] = 25 ± 2° C./60 ± 5% RH, 3rd month
[11] = 25 ± 2° C./60 ± 5% RH, 6th month
[12] = 25 ± 2° C./60 ± 5% RH, 9th month

Q: For `CNc1nc(N)nc2c1ncn2[C@@H]1O[C@H](CO[P@@](=O)(N[C@@H](C)C(=O)OC(C)C)Oc2ccccc2)[C@@H](O)[C@@]1(C)F` [Compound 2, hemi-sulfate salt of isopropyl((S)-(((2R,3R,4R,5R)-5-(2-amino-6-(methylamino)-9H-purin-9-yl)-4-fluoro-3-hydroxy-4-methyltetrahydrofuran-2-yl)methoxy)(phenoxy)phosphoryl)-L-alaninate], which Appearance ([1]; 40° C./75% RH, 0 month) is on record?
A: White

Q: What about the Assay ([1]; 40° C./75% RH, 0 month) of the same molecule?
A: 98.8%

Q: And the IR ([1]; 40° C./75% RH, 0 month)?
A: correspond

Q: And the “Related Substance 1: Any other single impurity” value ([1]; 40° C./75% RH, 0 month)?
A: 0.01%

Q: What about the “Related Substance 1: Total Impurities” value ([1]; 40° C./75% RH, 0 month) of the same molecule?
A: 0.01%

Q: What about the Water ([1]; 40° C./75% RH, 0 month) of the same molecule?
A: 0.45%

Q: And the Appearance ([1]; 40° C./75% RH, 1st month)?
A: White

Q: What about the Assay ([1]; 40° C./75% RH, 1st month) of the same molecule?
A: 101.5%

Q: What about the “Related Substance 1: Any other single impurity” value ([1]; 40° C./75% RH, 1st month) of the same molecule?
A: 0.02%

Q: And the “Related Substance 1: Total Impurities” value ([1]; 40° C./75% RH, 1st month)?
A: 0.02%

Q: What about the Water ([1]; 40° C./75% RH, 1st month) of the same molecule?
A: 0.21%

Q: What about the Appearance ([1]; 40° C./75% RH, 3rd month) of the same molecule?
A: White

Q: And the Assay ([1]; 40° C./75% RH, 3rd month)?
A: 99.6%

Q: And the IR ([1]; 40° C./75% RH, 3rd month)?
A: correspond

Q: And the “Related Substance 1: Any other single impurity” value ([1]; 40° C./75% RH, 3rd month)?
A: 0.01%

Q: And the “Related Substance 1: Total Impurities” value ([1]; 40° C./75% RH, 3rd month)?
A: 0.02%

Q: And the Water ([1]; 40° C./75% RH, 3rd month)?
A: 0.36%

Q: What about the Appearance ([1]; 40° C./75% RH, 6th month) of the same molecule?
A: White

Q: What about the Assay ([1]; 40° C./75% RH, 6th month) of the same molecule?
A: 99.5%

Q: What about the IR ([1]; 40° C./75% RH, 6th month) of the same molecule?
A: correspond

Q: And the “Related Substance 1: Any other single impurity” value ([1]; 40° C./75% RH, 6th month)?
A: 0.05%

Q: What about the “Related Substance 1: Impurity F” value ([1]; 40° C./75% RH, 6th month) of the same molecule?
A: 0.01%

Q: And the “Related Substance 1: Total Impurities” value ([1]; 40° C./75% RH, 6th month)?
A: 0.08%

Q: What about the Water ([1]; 40° C./75% RH, 6th month) of the same molecule?
A: 0.41%

Q: What about the “Stability” value ([1]; accelerated stability conditions (40° C./75% RH), 6 months) of the same molecule?
A: remains a white solid

Q: And the Percentage of water ([2]; 25° C./60% RH, after 9 months)?
A: 0.20%

Q: And the “Total related substance 1 impurities” value ([2]; 25° C./60% RH, after 9 months)?
A: 0.02%

Q: And the “Related substance 2 and any isomers” value ([2]; 25° C./60% RH, nine months)?
A: not detected

Q: And the Appearance [2, 8]?
A: white solid

Q: And the IR [2, 8]?
A: corresponded with the reference sample

Q: What about the Appearance ([2]; 25 ± 2° C./60 ± 5% RH, 0 month) of the same molecule?
A: White

Q: What about the Assay ([2]; 25 ± 2° C./60 ± 5% RH, 0 month) of the same molecule?
A: 98.8%

Q: What about the IR ([2]; 25 ± 2° C./60 ± 5% RH, 0 month) of the same molecule?
A: correspond

Q: And the “Related Substance 1 Any other single impurity” value ([2]; 25 ± 2° C./60 ± 5% RH, 0 month)?
A: 0.01%

Q: And the “Related Substance 1 Total Impurities” value ([2]; 25 ± 2° C./60 ± 5% RH, 0 month)?
A: 0.01%

Q: What about the Water ([2]; 25 ± 2° C./60 ± 5% RH, 0 month) of the same molecule?
A: 0.45%

Q: What about the Appearance [2, 9] of the same molecule?
A: White

Q: And the Assay [2, 9]?
A: 101.1%

Q: What about the “Related Substance 1 Any other single impurity” value [2, 9] of the same molecule?
A: 0.01%

Q: What about the “Related Substance 1 Total Impurities” value [2, 9] of the same molecule?
A: 0.02%

Q: And the Water [2, 9]?
A: 0.19%

Q: What about the Appearance [2, 10] of the same molecule?
A: White

Q: And the Assay [2, 10]?
A: 99.6%

Q: What about the IR [2, 10] of the same molecule?
A: correspond

Q: And the “Related Substance 1 Any other single impurity” value [2, 10]?
A: 0.03%

Q: What about the “Related Substance 1 Impurity B” value [2, 10] of the same molecule?
A: 0.03%

Q: And the “Related Substance 1 Impurity F” value [2, 10]?
A: 0.02%

Q: What about the “Related Substance 1 Total Impurities” value [2, 10] of the same molecule?
A: 0.11%

Q: What about the Water [2, 10] of the same molecule?
A: 0.29%

Q: What about the Appearance [2, 11] of the same molecule?
A: White solid

Q: What about the Assay [2, 11] of the same molecule?
A: 99.7%

Q: And the IR [2, 11]?
A: correspond

Q: What about the “Related Substance 1 Any other single impurity” value [2, 11] of the same molecule?
A: 0.02%

Q: What about the “Related Substance 1 Impurity F” value [2, 11] of the same molecule?
A: 0.01%

Q: And the “Related Substance 1 Total Impurities” value [2, 11]?
A: 0.05%

Q: And the Water [2, 11]?
A: 0.46%

Q: What about the Appearance [2, 12] of the same molecule?
A: Off-white

Q: And the Assay [2, 12]?
A: 100.9%

Q: And the IR [2, 12]?
A: correspond

Q: And the “Related Substance 1 Any other single impurity” value [2, 12]?
A: 0.02%

Q: And the “Related Substance 1 Total Impurities” value [2, 12]?
A: 0.02%

Q: What about the Water [2, 12] of the same molecule?
A: 0.20%

Q: What about the “Stability” value ([2]; ambient conditions (25° C./60% RH), 9 months) of the same molecule?
A: very stable; also recorded: stable

Q: What about the “Compound 1 exposure” value [3] of the same molecule?
A: low levels

Q: And the “Metabolite 1-7 levels” value [3]?
A: high levels

Q: And the AUC(0-t) ([4]; 30 mg/kg)?
A: 176 ng·h/mL

Q: And the Cmax ([4]; 30 mg/kg)?
A: 63.5 ng/mL

Q: And the Tmax ([4]; 30 mg/kg)?
A: 0.5 to 2 h

Q: What about the AUC(0-t) ([4]; 100 mg/kg) of the same molecule?
A: 1100 ng·h/mL

Q: What about the Cmax ([4]; 100 mg/kg) of the same molecule?
A: 783 ng/mL

Q: And the Tmax ([4]; 100 mg/kg)?
A: 1 to 2 h

Q: And the AUC(0-t) ([4]; 300 mg/kg)?
A: 1600 ng·h/mL

Q: What about the Cmax ([4]; 300 mg/kg) of the same molecule?
A: 501 ng/mL

Q: And the Tmax ([4]; 300 mg/kg)?
A: 204 h

Q: And the “Vomiting (animals affected)” value ([4]; monkeys, high dose group)?
A: 1/5

Q: And the “Dose proportionality of Compound 1 exposures” value ([4]; monkeys, single oral doses of Compound 2)?
A: roughly dose-proportional

Q: What about the “Active TP (metabolite 1-6) level in heart” value [5] of the same molecule?
A: unquantifiable levels

Q: What about the “Active TP (metabolite 1-6) level in liver” value [5] of the same molecule?
A: High levels

Q: And the “Dose proportionality of metabolite 1-7 exposures” value [6]?
A: somewhat less than dose-proportional

Q: And the “Dose proportionality of plasma exposures (AUC) of Compound 1” value [6]?
A: roughly dose-proportional

Q: And the “Intensity of adverse effects” value ([7]; Part A)?
A: mild to moderate

Q: And the Serious adverse events ([7]; Part A)?
A: No serious adverse events

Q: What about the “Tolerability” value ([7]; single oral dose) of the same molecule?
A: well tolerated

Q: What about the “Mean maximum HCV RNA reduction” value (HCV RNA (GT1-HCV); 24 hours post-dose, single 100 mg dose) of the same molecule?
A: 0.8 log10 IU/mL

Q: And the “Mean maximum HCV RNA reduction” value (HCV RNA (GT1-HCV); 24 hours post-dose, single 300 mg dose)?
A: 1.7 log10 IU/mL

Q: And the “Mean maximum HCV RNA reduction” value (HCV RNA (GT1-HCV); single 400 mg dose)?
A: 2.2 log10 IU/mL
